The source of these data is patent US20110152166A1, “METHOD OF MODULATION OF PROTEIN PHOSPHORYLATION-DEPENDENT CONFORMATIONAL TRANSITIONS WITH LOW MOLECULAR WEIGHT COMPOUNDS” (priority 2006, published 2011).

One may read the AC50 as the concentration at which the activity in the assay is half-maximal.

Numbering of substitutions follows the chain as printed. Where two headings read alike, the source gives them in different places. Ends that are not written are not given here.

Common to all, as to experiment: PDK1 activity assay with T308tide
Assay type in all cases: biochemical

One test concerns the target T1, GST-PDK1 [Leu155Glu] (Homo sapiens, UniProt O15530, L155E).
T1 construct: different protein constructs, comprising the full length protein or the catalytic domain alone; made in house; host or cells: HEK293 cells (pEBG-2T-PDK1 mutant)
T1 sequence (O15530 1-556 L155E): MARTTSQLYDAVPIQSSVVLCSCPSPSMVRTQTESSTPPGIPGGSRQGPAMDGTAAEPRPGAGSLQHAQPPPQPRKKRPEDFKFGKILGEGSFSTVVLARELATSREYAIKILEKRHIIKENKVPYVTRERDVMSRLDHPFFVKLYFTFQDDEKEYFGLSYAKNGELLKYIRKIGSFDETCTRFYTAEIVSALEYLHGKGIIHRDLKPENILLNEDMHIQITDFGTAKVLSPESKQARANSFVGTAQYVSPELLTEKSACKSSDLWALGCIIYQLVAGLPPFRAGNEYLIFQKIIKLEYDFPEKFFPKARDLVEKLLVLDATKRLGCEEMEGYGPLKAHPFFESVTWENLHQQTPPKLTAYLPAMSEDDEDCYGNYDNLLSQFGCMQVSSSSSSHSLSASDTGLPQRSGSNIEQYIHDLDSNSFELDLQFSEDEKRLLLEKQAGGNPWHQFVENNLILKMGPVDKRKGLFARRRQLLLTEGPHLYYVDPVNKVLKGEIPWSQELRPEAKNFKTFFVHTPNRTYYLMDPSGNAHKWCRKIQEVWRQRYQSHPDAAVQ
The conditions noted are these: for AC50: GST-PDK1 [Leu155Glu].

The target in a further test is T2, GST-PDK1 [Arg131Ala] (Homo sapiens, UniProt O15530, R131A).
T2 construct: different protein constructs, comprising the full length protein or the catalytic domain alone; made in house; host or cells: HEK293 cells (pEBG-2T-PDK1 mutant)
T2 sequence (O15530 1-556 R131A): T1 sequence (O15530 1-556 L155E) with R131A, E155L
The conditions noted are these: for AC50 / Max. activity: GST-PDK1 [Arg131Ala].

Another test deals with T3, GST-PDK1 [Gln150Glu] (Homo sapiens, UniProt O15530, Q150E).
T3 construct: different protein constructs, comprising the full length protein or the catalytic domain alone; made in house; host or cells: HEK293 cells (pEBG-2T-PDK1 mutant)
T3 sequence (O15530 1-556 Q150E): T1 sequence (O15530 1-556 L155E) with Q150E, E155L

As for “REPRILSEEEQEMFRDFDYIADWC [PIFtide, reference compound]”, the AC50 result was “No Effect” at GST-PDK1 [Leu155Glu], 3.7 ± 2 µM at GST-PDK1 [Arg131Ala] and “No Effect” on GST-PDK1 [Gln150Glu]. This compound displayed a Max. activity at GST-PDK1 [Arg131Ala] of 1.24 ± 0.8 U/mg.
As for `O=C(O)CSC(CC(=O)c1ccc(Cl)cc1)c1ccccc1` (centres unmarked) [Compound 1], the half-maximal activity concentration (AC50) result was “No Effect” at GST-PDK1 [Leu155Glu], greater than 200 µM at GST-PDK1 [Arg131Ala] and greater than 200 µM on GST-PDK1 [Gln150Glu] (read-out: AC50). Further, the “activation of PDK1 mutant (in words)” value at GST-PDK1 [Leu155Glu] (Leu155 replaced with Glu, constitutively active) is on record as “could not be further activated”; on GST-PDK1 [Arg131Ala] (Arg131 mutated to Ala), “no longer activated”. Besides, the Max. activity amounted to 1.09 ± 0.06 U/mg on GST-PDK1 [Arg131Ala] and 2.5 ± 0.7 U/mg at GST-PDK1 [Gln150Glu].
